Assay results from paper PMC9863297, “Intermolecular Interactions of Edaravone in Aqueous Solutions of Ethaline and Glyceline Inferred from Experiments and Quantum Chemistry Computations” (Molecules, 2023).
Like-named read-outs stand apart in the source and are kept apart here.

Test: Edaravone solubility, slurry/shake-flask method with spectrophotometric determination at 243 nm
Type: physicochemical
Details: for solubility at 24 h: thermodynamic from solid, read-out: cE solubility concentration; for mole fraction solubility advantage of 1:2 composition over unimolar composition: DES involving ethylene glycol; for volume of saturated solution containing the recommended 60 mg: solubility at 298.15 K
Description: The first step in obtaining a calibration curve was the preparation of a stock solution of edaravone with a concentration of 2.3 mg/mL. This initial solution was successfully diluted in 10 mL volumetric flasks with methanol and the obtained solutions with decreasing concentrations were measured spectrophotometrically. […] Three separate curves were obtained, and the final curve resulted from averaging. […] The limits of detection (LOD) and quantification (LOQ) were calculated as 5.899∙10^−4 mg/mL and 1.770∙10^−3 mg/mL, respectively.
All of the studied deep eutectic solvents included choline chloride, while the second constituent was either glycerol or ethylene glycol. In order to prepare a DES formulation, choline chloride was mixed with the second compound in different molar ratios in sealed test tubes and placed in a water bath at 363.15 K until the formation of a uniform solution. The obtained DES were either used in their neat form or water was added to them in different proportions in order to form binary systems.
During the next stage, edaravone was added in excess amounts to the test tubes containing both neat DES and binary mixtures, which enabled us to obtain its saturated solutions. Samples prepared in such a manner were placed in an Orbital Shaker Incubator ES-20/60 from Biosan (Riga, Latvia) and incubated for 24 h at different temperatures, namely 298.15 K, 303.15 K, 308.15 K and 313.15 K. The temperature adjustment accuracy was 0.1 K and its variability in a 24 h cycle was ±0.5 K. Apart from heating, all of the samples were mixed at 60 rev/min. The increased viscosity and density of DES systems required the samples to be centrifuged at 1000 rev/min for 5 min with the use of EBA 20 centrifuge from Hettich (Tuttlingen, Germany) enabling the undissolved precipitate to remain on the bottom of the test tubes. Next, the samples were filtered using a syringe equipped with a PTFE syringe filer with 0.22 µm pore size. In order to avoid precipitation, the test tubes, syringes and filters were initially heated at a temperature equal to the one of the handled samples. Finally, small amounts of the obtained filtrate were transferred to test tubes filled with methanol and the diluted samples were measured spectrophotometrically. Additionally, for the determination of the mole fractions of edaravone, the density of the samples was measured by weighing a fixed volume of the solution in 10 mL volumetric flasks.
For determining the solubility of edaravone in the studied systems, the samples prepared, as described above, were measured spectrophotometrically using an A360 spectrophotometer from AOE Instruments (Shanghai, China). The spectra were recorded in the 190 nm to 500 nm wavelength range and 1 nm resolution. Methanol was used for the initial calibration of the spectrophotometer and for the dilution of the measured samples, which was conducted in order for the absorbance values to remain below 2.5. The absorbance values at 243 nm were taken into account and based on the calibration curve prepared earlier, the concentration of edaravone in the samples was determined, followed by its mole fractions. The values were averaged from three separate measurements.

CC1=NN(c2ccccc2)C(=O)C1 [edaravone, 5-methyl-2-phenyl-4H-pyrazol-3-one]
solubility at 24 h (40 °C, aqueous with cosolvent or surfactant or cyclodextrin, water + GLE (ChCl:GL 1:2), x*GLE = 0.6, 313.15 K): 692 mg/mL | solubility at 24 h (40 °C, aqueous with cosolvent or surfactant or cyclodextrin, water + GLE (ChCl:GL 1:2), x*GLE = 0.8, 313.15 K): 602 mg/mL | solubility at 24 h (40 °C, organic solvent or mixture, neat DES choline chloride + glycerol (GLE) 1:1 molar ratio, 313.15 K): 398 mg/mL | solubility at 24 h (40 °C, organic solvent or mixture, neat DES choline chloride + glycerol (GLE) 1:2 molar ratio (x*GLE = 1.0), 313.15 K): 492 mg/mL | solubility at 24 h (40 °C, organic solvent or mixture, neat DES choline chloride + glycerol (GLE) 1:4 molar ratio, 313.15 K): 470 mg/mL | mole fraction solubility advantage of 1:2 composition over unimolar composition (298.15 K): 53% | mole fraction solubility advantage of 1:2 composition over unimolar composition (313.15 K): 21% | solubility at 24 h (deep eutectic solvent + water binary mixture, 25 °C, aqueous with cosolvent or surfactant or cyclodextrin, water + ETA (ChCl:EG 1:2), x*ETA = 0.8, 298.15 K): 363 mg/mL | solubility at 24 h (deep eutectic solvent + water binary mixture, 30 °C, aqueous with cosolvent or surfactant or cyclodextrin, water + ETA (ChCl:EG 1:2), x*ETA = 0.6, 303.15 K): 561 mg/mL | solubility at 24 h (deep eutectic solvent + water binary mixture, 30 °C, aqueous with cosolvent or surfactant or cyclodextrin, water + ETA (ChCl:EG 1:2), x*ETA = 0.8, 303.15 K): 452 mg/mL | solubility at 24 h (deep eutectic solvent + water binary mixture, 35 °C, aqueous with cosolvent or surfactant or cyclodextrin, water + ETA (ChCl:EG 1:2), x*ETA = 0.5, 308.15 K): 664 mg/mL | solubility at 24 h (deep eutectic solvent + water binary mixture, 35 °C, aqueous with cosolvent or surfactant or cyclodextrin, water + ETA (ChCl:EG 1:2), x*ETA = 0.6, 308.15 K): 670 mg/mL | solubility at 24 h (deep eutectic solvent + water binary mixture, 35 °C, aqueous with cosolvent or surfactant or cyclodextrin, water + ETA (ChCl:EG 1:2), x*ETA = 0.8, 308.15 K): 561 mg/mL | solubility at 24 h (deep eutectic solvent + water binary mixture, 40 °C, aqueous with cosolvent or surfactant or cyclodextrin, water + ETA (ChCl:EG 1:2), x*ETA = 0.5, 313.15 K): 744 mg/mL | solubility at 24 h (deep eutectic solvent + water binary mixture, 40 °C, aqueous with cosolvent or surfactant or cyclodextrin, water + ETA (ChCl:EG 1:2), x*ETA = 0.6, 313.15 K): 753 mg/mL | solubility at 24 h (deep eutectic solvent + water binary mixture, 40 °C, aqueous with cosolvent or surfactant or cyclodextrin, water + ETA (ChCl:EG 1:2), x*ETA = 0.8, 313.15 K): 655 mg/mL | solubility increase in optimal binary composition compared to neat DES (glycerol-containing systems, x*DES = 0.6, average): 28% | volume of saturated solution containing the recommended 60 mg (neat DES ETA): 0.20 mL | volume of saturated solution containing the recommended 60 mg (neat DES GLE): 0.32 mL | xE mole fraction solubility (neat DES choline chloride + ethylene glycol (ETA) 1:1 molar ratio, 298.15 K): 1031.93 (±62.91) mole fraction ∙10^4 | xE mole fraction solubility (neat DES choline chloride + ethylene glycol (ETA) 1:1 molar ratio, 303.15 K): 1400.98 (±40.74) mole fraction ∙10^4 | xE mole fraction solubility (neat DES choline chloride + ethylene glycol (ETA) 1:1 molar ratio, 308.15 K): 2089.82 (±49.36) mole fraction ∙10^4 | xE mole fraction solubility (neat DES choline chloride + ethylene glycol (ETA) 1:1 molar ratio, 313.15 K): 2966.24 (±120.59) mole fraction ∙10^4 | xE mole fraction solubility (neat DES choline chloride + ethylene glycol (ETA) 1:2 molar ratio (x*ETA = 1.0), 298.15 K): 1579.47 (±70.73) mole fraction ∙10^4 | xE mole fraction solubility (neat DES choline chloride + ethylene glycol (ETA) 1:2 molar ratio (x*ETA = 1.0), 303.15 K): 2135.68 (±42.46) mole fraction ∙10^4 | xE mole fraction solubility (neat DES choline chloride + ethylene glycol (ETA) 1:2 molar ratio (x*ETA = 1.0), 308.15 K): 2878.22 (±133.85) mole fraction ∙10^4 | xE mole fraction solubility (neat DES choline chloride + ethylene glycol (ETA) 1:2 molar ratio (x*ETA = 1.0), 313.15 K): 3602.21 (±117.41) mole fraction ∙10^4 | xE mole fraction solubility (neat DES choline chloride + ethylene glycol (ETA) 1:4 molar ratio, 298.15 K): 1306.68 (±55.75) mole fraction ∙10^4 | xE mole fraction solubility (neat DES choline chloride + ethylene glycol (ETA) 1:4 molar ratio, 303.15 K): 1677.66 (±47.52) mole fraction ∙10^4 | xE mole fraction solubility (neat DES choline chloride + ethylene glycol (ETA) 1:4 molar ratio, 308.15 K): 2434.99 (±114.12) mole fraction ∙10^4 | xE mole fraction solubility (neat DES choline chloride + ethylene glycol (ETA) 1:4 molar ratio, 313.15 K): 3428.20 (±105.69) mole fraction ∙10^4 | xE mole fraction solubility (neat DES choline chloride + glycerol (GLE) 1:1 molar ratio, 298.15 K): 786.83 (±3.34) mole fraction ∙10^4 | xE mole fraction solubility (neat DES choline chloride + glycerol (GLE) 1:1 molar ratio, 303.15 K): 1173.65 (±39.25) mole fraction ∙10^4 | xE mole fraction solubility (neat DES choline chloride + glycerol (GLE) 1:1 molar ratio, 308.15 K): 1615.31 (±40.69) mole fraction ∙10^4 | xE mole fraction solubility (neat DES choline chloride + glycerol (GLE) 1:1 molar ratio, 313.15 K): 2429.30 (±72.71) mole fraction ∙10^4 | xE mole fraction solubility (neat DES choline chloride + glycerol (GLE) 1:2 molar ratio (x*GLE = 1.0), 298.15 K): 1052.85 (±68.85) mole fraction ∙10^4
